Assay results published in US9957288B2, “Pyrabactin analogues to modulate plant development” (Universiteit Gent, priority 2014, dated 2018).

What was measured:
tobacco epidermal strips = test: Stomatal closure assay on epidermal strips; format: cell-based, Nicotiana tabacum
[1] = system: Arabidopsis thaliana seedlings; details: in vivo
[2] = system: Arabidopsis thaliana seeds; test: Arabidopsis thaliana seed germination assay; format: in vivo; details: in vivo
[3] = system: Arabidopsis thaliana Columbia (Col0) seedlings; test: Primary root elongation of etiolated seedlings on compound medium; format: in vivo; details: in vivo
[4] = system: Arabidopsis thaliana Columbia (Col0) seedlings; test: Lateral root initiation (lateral roots + lateral root primordia, number and density); format: in vivo; details: in vivo
[5] = system: etiolated Arabidopsis thaliana seedlings; details: in vivo
[6] = system: Nicotiana benthamiana leaves; test: Leaf dehydration assay (weight loss of pre-treated detached leaves in dry air flow); format: in vivo; details: pre-treatment: ABA 10 and 100 μM, analogues 10 μM; 6 h dry air flow

Which Stomata (tobacco epidermal strips) does the source give for `CCOP(=O)(NCc1ccccn1)c1ccc(Br)c2ccccc12` (centres unmarked) [Analogue E1, Ethyl N-(pyridin-2-ylmethyl)-P-(4-bromonapht-1-yl)phosphonamidate] here?
Its Stomata is “−”.

And the “effect on stomatal aperture” value (tobacco epidermal strips)?
The value was “did not cause closure of the stomata and even induced the opening”.

And the Shoot [1]?
The Shoot was 0.

What about the Seed germination [2] of the same molecule?
Its Seed germination is 0.

And the PR [3]?
The PR was “+”.

What about the “effect on primary root growth” value [3] of the same molecule?
Its value is “modest inhibitors of primary root elongation”.

What about the LR [4] of the same molecule?
The LR was “++”.

And the “effect on LR+ LRP density (per cm primary root)” value [4]?
Its value is “strong density reduction (even stronger than ABA)”.

And the “effect on number of LR+ LRP (lateral root initiation)” value [4]?
Its value is “strong inhibitors”.

And the AR [5]?
The AR was “−”.

And the “effect on leaf weight loss / transpiration” value [6]?
The value was “reduction of transpiration”.
